The results in this text go back to ChEMBL document CHEMBL1201862, “PubChem BioAssay data set” (2004).

Test systems include OVCAR-8; HL-60; OVCAR-5; BT-549; MDA-MB-435; UO-31; A549; UACC-257; HCT-15; RXF 393; COLO 205; PC-3; MDA-N; RPMI-8226; NCI-H226; NCI-H522; M14; HOP-92; DU-145; SF-268.
Assay in all cases: DTP human tumour cell line panel, 48 h

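How tested: cells in 96-well plates exposed to compound for 48 hours at five concentrations. GI50: concentration for 50% inhibition of growth.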 The source made the active and inactive calls. Rule as the data show it: active = GI50 up to about 1.1 µM and inactive = higher.

For orientation: GI50 means the concentration at which growth is held to half of that of the control. As to `CN(C)CCn1c(=O)c2ccc3c4c(nn3CCN(C)C)c3cc(O)ccc3n(c1=O)c24`, the GI50 is < 0.01 µM (active) in the assay on OVCAR-8; 0.0419 µM (active) in the assay on HL-60; 0.0723 µM (active) with OVCAR-5; 0.879 µM (active) with BT-549; 0.134 µM (active) with MDA-MB-435; 0.0927 µM (active) in the assay on UO-31. The GI50 with A549 is 0.0325 µM (active); in the assay on UACC-257, 0.308 µM (active); in the assay with HCT-15, 0.147 µM; in the assay with RXF 393, 0.281 µM (active); in the assay with COLO 205, 0.0706 µM (active); with PC-3 it was 0.0659 µM (active). The GI50 with MDA-N was 0.181 µM (active); with RPMI-8226 it was 0.0541 µM (active); in the assay on NCI-H226 it was 0.126 µM (active); in the assay on NCI-H522, < 0.01 µM (active); in the assay on M14 it was 0.397 µM (active).
As to `NCCc1ccc2c(c1)C(=O)c1c(O)ccc(O)c1C2=O`, the GI50 in the assay with OVCAR-8 was 2.04 µM (inactive); in the assay on HL-60, 2.17 µM (inactive); in the assay on OVCAR-5, 5.06 µM (inactive); with BT-549 it was 6.73 µM (inactive); in the assay on HOP-92, 4.05 µM (inactive); in the assay on UO-31 it was 4.65 µM (inactive). Further, the GI50 in the assay on A549 is 3.56 µM (inactive); in the assay with UACC-257, 15.2 µM (inactive); with DU-145 it was > 19.8 µM (inactive); in the assay with HCT-15, 4.51 µM; in the assay with RXF 393 it was > 21.6 µM (inactive); with COLO 205, 1.68 µM (inactive). Moreover, the GI50 was 3.33 µM (inactive) with PC-3; 2.82 µM (inactive) with MDA-N; 4.13 µM (inactive) with SF-268; 4.14 µM (inactive) in the assay with RPMI-8226; 17 µM (inactive) in the assay on NCI-H226; 3.08 µM (inactive) with M14.
On to `O=C1NC(=O)C(CCC(=O)c2cccc3ccccc23)C(=O)N1`, for which the GI50 in the assay on OVCAR-8, with HL-60, in the assay on OVCAR-5, in the assay with BT-549, with MDA-MB-435 and with HOP-92 was > 100 µM (inactive) in each case. In addition, the GI50 in the assay with UO-31 is > 100 µM (inactive); in the assay with A549, > 100 µM (inactive); in the assay on UACC-257 it was > 100 µM (inactive); with DU-145, > 100 µM (inactive); with HCT-15 it was more than 100 µM; in the assay with RXF 393, > 100 µM (inactive). Besides, the GI50 was > 100 µM (inactive) in the assay on COLO 205; > 100 µM (inactive) in the assay on PC-3; > 100 µM (inactive) in the assay with MDA-N; > 100 µM (inactive) in the assay on SF-268; 48.8 µM (inactive) in the assay on RPMI-8226; 77.8 µM (inactive) in the assay with NCI-H226. For the same molecule, the GI50 with M14 is > 100 µM (inactive).
With `COc1ccc(C(=O)c2[nH]c(Nc3ccc(Cl)cc3)c(C(=S)Nc3ccccc3)c2N)cc1`, the GI50 in the assay on OVCAR-8, in the assay on HL-60, with OVCAR-5, in the assay on BT-549, in the assay on MDA-MB-435 and in the assay with HOP-92 was > 100 µM (inactive) throughout. The GI50 in the assay with UO-31 is > 100 µM (inactive); in the assay on A549, > 100 µM (inactive); in the assay with UACC-257, > 100 µM (inactive); with DU-145, > 100 µM (inactive); in the assay on HCT-15, more than 100 µM; in the assay on RXF 393 it was > 100 µM (inactive). In addition, the GI50 with COLO 205 was > 100 µM (inactive); in the assay with MDA-N it was > 100 µM (inactive); in the assay on SF-268, > 100 µM (inactive); in the assay with NCI-H226, 47 µM (inactive); in the assay with NCI-H522, > 100 µM (inactive).
Regarding `CCN(CCN(CC)C(=O)NC)C(=O)NC`, the GI50 in the assay with OVCAR-8, with HL-60, with OVCAR-5, with BT-549, with HOP-92 and with UO-31 was > 100 µM (inactive) each time. Also, the GI50 with A549 was > 100 µM (inactive); in the assay on UACC-257, > 100 µM (inactive); in the assay with DU-145, > 100 µM (inactive); in the assay with HCT-15, more than 100 µM; in the assay with RXF 393, > 100 µM (inactive); in the assay on COLO 205 it was > 100 µM (inactive). Further, the GI50 in the assay on PC-3, in the assay on MDA-N, in the assay with SF-268, in the assay with RPMI-8226, in the assay with NCI-H226 and in the assay with NCI-H522 was > 100 µM (inactive) throughout. In addition, the GI50 with M14 is > 100 µM (inactive).
Consider `CCCCCCCCCCCCC(O)C1CCC(C(O)CCCCC(O)CCCCCC2CC(CC(C)=O)C(=O)O2)O1` (stereo unspecified), for which the GI50 with OVCAR-8 was 3.44 µM (inactive); in the assay on OVCAR-5, 8.75 µM (inactive); in the assay on BT-549, 2.79 µM (inactive); with HOP-92, 0.986 µM (active); with UO-31, 2.27 µM (inactive); in the assay on A549 it was 3.21 µM (inactive). Moreover, the GI50 in the assay on UACC-257 was 0.0204 µM (active); with DU-145 it was 3.86 µM (inactive); in the assay on HCT-15, 3.35 µM; with RXF 393, 4.29 µM (inactive); in the assay on COLO 205, 3.19 µM (inactive); in the assay with PC-3, 1.68 µM (inactive). Also, the GI50 was 1.6 µM (inactive) in the assay with MDA-N; 3.33 µM (inactive) in the assay with SF-268; 1.82 µM (inactive) in the assay on NCI-H226; 4.15 µM (inactive) in the assay on NCI-H522; 7.29 µM (inactive) in the assay with M14.
Take `CCCCC/C=C\C=C1\C(=O)C=C[C@@H]1C/C=C\CCCC(=O)O`: the GI50 was 1.49 µM (inactive) in the assay on OVCAR-8; 2.41 µM (inactive) in the assay with HL-60; 3.41 µM (inactive) in the assay with OVCAR-5; 2.05 µM (inactive) in the assay with BT-549; 2.42 µM (inactive) with MDA-MB-435; 6.31 µM (inactive) in the assay on UO-31. In addition, the GI50 in the assay on A549 is 5.73 µM (inactive); in the assay with UACC-257, 7.29 µM (inactive); with DU-145, 6.92 µM (inactive); with HCT-15, 5.24 µM; with RXF 393, 1.94 µM (inactive); in the assay on COLO 205, 2.96 µM (inactive). Also, the GI50 is 1.84 µM (inactive) with PC-3; 1.96 µM (inactive) in the assay on MDA-N; 4.37 µM (inactive) in the assay on SF-268; 1.38 µM (inactive) in the assay with RPMI-8226; 7.38 µM (inactive) in the assay on NCI-H226; 6.85 µM (inactive) in the assay on M14.
As for `COC(=O)/C1=C/c2c([nH]c3ccccc23)/C(C(=O)OC)=C\c2c1[nH]c1ccccc21` [CAULERPIN], the GI50 with OVCAR-8 was 26.6 µM (inactive); with OVCAR-5 it was > 50 µM (inactive); with BT-549 it was 25.6 µM (inactive); in the assay with MDA-MB-435 it was 14.7 µM (inactive); in the assay on UO-31, 7.6 µM (inactive); in the assay with A549 it was 33.3 µM (inactive). Besides, the GI50 was > 50 µM (inactive) with UACC-257; 42 µM (inactive) in the assay on DU-145; 22 µM in the assay with HCT-15; 12.7 µM (inactive) in the assay on RXF 393; > 50 µM (inactive) with COLO 205; 15.5 µM (inactive) in the assay on MDA-N. In addition, the GI50 is 19.5 µM (inactive) in the assay on SF-268, > 50 µM (inactive) in the assay on NCI-H226, 6.08 µM (inactive) in the assay on NCI-H522 and 25.2 µM (inactive) with M14.
